The source of these data is US7803837B2, “4-oxo-4,5-dihydro-furan-2-carboxylic acid derivatives and methods of treatment of metabolic-related disorders thereof” (Arena Pharmaceuticals, Inc., priority 2003, dated 2010).

The assay deals with free fatty acid production. Briefly: Inhibition of free fatty-acid production, in vivo, in catheterized male rats (NEFA assay on serum). On the set-up: species or system Sprague-Daly Rats. The settings on record: food deprived catheterized rats, IP administration at various concentrations, FIG. 2A/2B. The protocol: Inhibition of Free Fatty-Acid Production, In Vivo, in Catheterized Male Sprague-Daly Rats
Non-esterified free-fatty acid (NEFA) assays were done on serum derived from live, freely moving rats. Jugular vein catheters were surgically implanted into the jugular veins and the animals were allowed to recover at least 48 hr post surgery. Food was removed from the animals approximately 16 hours prior to the assay. A draw of ˜200 μl blood was pulled from the catheter and represents the baseline NEFA serum sample. Drug was administered intra-peritoneally (IP) at various concentrations to individual rats and then ˜200 μl blood draws were pulled from the catheter at the indicated time points for further NEFA analysis. NEFA assays were performed according to the manufacturer's specifications (Wako Chemicals, USA; NEFA C) and free fatty acid concentrations were determined via regression analysis of a known standard curve (range of known free fatty acids). Data was analyzed using Excel and PrismGraph.

SMILES strings stand for the structures.

With `CC1(C2=CCCCC2)OC(C(=O)O)=CC1=O` (racemic) [Compound 1, 5-Cyclohex-1-enyl-5-methyl-4-oxo-4,5-dihydro-furan-2-carboxylic acid], the “inhibition of plasma free fatty acid (NEFA)” value is “able to inhibit free fatty acid production to the same extent, at similar doses and within the same time-frame as compared to nicotinic acid”. Then `O=C(O)c1cccnc1` [nicotinic acid, pyridine-3-carboxylic acid], with “inhibiting plasma free fatty acid concentrations”.
